Measured values as given in US11389423B2, “Pharmaceutical composition, excipient for the composition and use of the composition” (priority 2018, dated 2022).

What was measured:
[1] = test system: Salmonella typhimurium TA100; experiment: AMES test, strain TA100; format: cell-based; conditions: TA100, with (+S9) and without (-S9) metabolic activation, 62.5-375 μg/plate
Excerpt: For the AMES test, the TA 100 and TA 98 strains of Salmonella typhimurium were used. The strain TA 100, which detects mutagens causing base pair replacement in DNA, contains a mutation in the hisG gene (hisG46), which codes for the first histidine biosynthesis enzyme, with the CG pair as the preferred point for reversion. The strain TA 98 has a mutation in the hisD gene to reverse eight repetitive GC residues and detects mutagenic compounds causing the DNA reading frame to shift. According to the methodology of direct incorporation in plates, developed by Maron and Ames (1983), different concentrations of CBD-SINT (375, 250, 125 and 62.5 μg/plate) were mixed with 0.1 mL of the bacteria culture and 2 mL of surface agar (top agar), supplemented with traces of histidine and biotin. For the tests with metabolic activation, 0.5 mL homogenized microsomal fraction S9 of rat liver (post-mitochondrial fraction, supplemented with a cofactor, prepared from the liver of rodents treated with an enzymatic inducing agent, arochloror 1254) (MOLTOX—Molecular Toxicology, USA) were added. As a negative control, double-distilled water (vehicle) was used. As a positive control for TA98, 4-nirophenylenediamine (NPD) dissolved in DMSO was used at a concentration of 10 μg/plate. […] After this period, the number of reversing colonies per plate was counted. […]

[2] = test system: DNA of male and female rats; conditions: rats male and female, 500, 1000 and 2000 mg/kg orally, 48 hours, peripheral blood
Experimental: The negative control group received placebo by gavage and the positive control was treated with cyclophosphamide monohydrate (20 mg/kg—Sigma-Aldrich) intraperitoneally.

[3] = test system: rats with MPTP microinfusion into the substantia nigra; experiment: Open field test (motor activity), MPTP model; format: in vivo; conditions: oral
Experimental: The number of animals per group was ten (10) subjects. This number was estimated based on internationally recognized and scientifically validated protocols. The doses of the CBD-SINT formulation were determined by allometric extrapolation from the average dose used in human patients (600 mg/day, which in a 70 kg individual represents approximately 9 mg/kg), obtaining an average dose of ˜36 mg/kg CBD in rats.
For the calculation of the three doses, the intermediate dose was used as a reference, and then a higher and a lower dose was stipulated on a logarithmic scale. To stipulate the lowest dose, ⅓ of the median dose was used. For the higher dose, a safety factor of 10 times the lower dose was used. Thus, the doses of CBD-SINT used in this trial were: 12, 36 and 120 mg/kg. […]
CBD-SINT and placebo were administered orally (gavage) for 18 days prior to the administration of the neurotoxin by stereotactic surgery, and for another 10 days after surgery. After the administration of the neurotoxin, the behavioral (locomotor activity) and biochemical (brain dopamine dosage) parameters were evaluated after 24 hours and after 10 days. […]
The animals were placed on the central circle of the open field and its behavior evaluated for 5 minutes. […] Each animal was assessed individually, and the device was cleaned between animals with 5% alcohol solution (FIG. 15).

[4] = test system: striatal levels of dopamine, DOPAC and AVM; experiment: Determination of striatal dopamine, DOPAC and HVA levels (HPLC-ECD), MPTP model; format: in vivo, rats
Experimental: For the experiments with MPTP (neuroprotection), the animals were divided into the following experimental groups: • MPTP+placebo • MPTP+CBD-SINT 12 mg/kg • MPTP+CBD-SINT 36 mg/kg • MPTP+CBD-SINT 120 mg/kg • Sham+placebo • Naive
CBD-SINT and placebo were administered orally (gavage) for 18 days prior to the administration of the neurotoxin by stereotactic surgery, and for another 10 days after surgery. After the administration of the neurotoxin, the behavioral (locomotor activity) and biochemical (brain dopamine dosage) parameters were evaluated after 24 hours and after 10 days. The memory tests (Morris water maze) were performed daily from day 1 to day 10 after the administration of the neurotoxin (FIG. 13).
The rats were submitted to stereotactic surgery (stereotactic—David Kopf, model 957L) and received bilateral microinfusion of MPTP or 6-OHDA (different groups of rats) directly into the substantia nigra. For surgery, the following stereotaxic coordinates were used: anteroposterior: 5.0 mm from the bregma; mediolateral: ±2.1 mm from the midline and dorsoventral: −7.7 mm from the cranial vault (Paxinos and Watson, 1986). Then, 100 μg MPTP (diluted in 1 μL saline, with a flow of 0.33 μL/min) or 8 μg 6-OHDA (diluted in 2 μL saline with 0.2 μg/μL ascorbic acid, with a flow rate of 0.33 μL/min) were injected. The microinfusions were performed with the aid of a needle (30 gauge) connected to a polyethylene tube adapted to a […] micro-syringe (Hamilton, USA), which in turn, is fitted into an infusion pump (Harvard Apparatus, USA). After the end of the microinfusion, the needle was kept in place for another 2 minutes to prevent reflux of the neurotoxins. Then, the scalp was sutured, and the animals were removed from the stereotaxic. The rats were then placed in its original cages. The animals in the Sham groups were subject to the same surgical procedure, however without receiving the neurotoxins, being only introduced to the needle in the same stereotactic coordinates. The rats of naive groups were not subject to stereotactic surgery but were removed from the housing cage for handling for a few hours.
After the last set of experiments, the animals from the nigrostriatal treatment with MPTP and its respective controls were euthanized by decapitation. The levels of dopamine (DA) and its metabolites 3,4-dihydroxyphenylacetic acid (DOPAC) and homovanilic acid (HVA) were determined by high-performance liquid chromatography with an electrochemical detector (HPLC-ECD) according to Luo et al. (2009).
Briefly, the striatum was dissected, weighed, and homogenized in 0.2 M cold perchloric acid. The sample was then centrifuged twice at 14,000 g for 15 min at 4° C. […]

**Q.** With `C=C(C)[C@@H]1CCC(C)=C[C@H]1c1c(O)cc(CCCCC)cc1O` [CBD-SINT, Cannabidiol] as the compound, how does the “frequency of reversible mutants with the increase in concentration” value [1] read?
**A.** The value was “no increase”.

**Q.** And the “mutagenicity ratios (MR)” value [1]?
**A.** Its value is “less than 2”.

**Q.** And the “DNA damage (Damage Index and Damage Frequency) vs negative control (placebo)” value [2]?
**A.** Its value is “none of the tested doses of CBD-SINT induced any significant changes”.

**Q.** What about the “latency time and frequency of standing compared to CBD-FITO in the same concentration” value [3] of the same compound?
**A.** The value was “a lower concentration had a more effective result”.

**Q.** And the “striatal levels of DOPAC” value ([4]; MPTP rats, 12 mg/kg orally)?
**A.** The value was “significantly increase”.

**Q.** And the “striatal levels of dopamine” value ([4]; MPTP rats, 12 mg/kg orally)?
**A.** Its value is “significantly increase”.

**Q.** And the “levels of all markers after treatment vs naive and Sham groups” value ([4]; MPTP rats, 12, 36 and 120 mg/kg orally)?
**A.** The value was “statistically lower”.

**Q.** What about the “striatal concentration of all evaluated markers (dopamine, DOPAC and AVM)” value ([4]; MPTP rats, 36 and 120 mg/kg orally) of the same compound?
**A.** Its value is “increased”.
